In the supplement of paper PMC10307832:

Tests used:
Assay in all cases: relative viability (nuclei count vs DMSO), 5 days (fraction); higher = more cells survive
A-427 = test system: A-427
Summary of the method: (§1)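 Lung cancer cell lines, seeded in 1536-well plates, were treated the following day by pin tool with a single drug or with five library-drug doses (not always all listed) in √10 steps on top of a fixed anchor-drug dose. Cells were fixed and nuclei stained in one step after 5 days, and nuclei were counted. Relative viability is the nuclei count for treated wells divided by that for vehicle wells, reported as medians of duplicate plates.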

HCC-15 = test system: HCC-15
Summary of the method: as §1

HCC-78 = test system: HCC-78
Summary of the method: as §1

HOP-62 = test system: HOP-62
Summary of the method: as §1

LC-2-ad = test system: LC-2-ad
Summary of the method: as §1

LXF-289 = test system: LXF-289
Summary of the method: as §1

NCI-H1734 = test system: NCI-H1734
Summary of the method: as §1

NCI-H1755 = test system: NCI-H1755
Summary of the method: as §1

NCI-H1792 = test system: NCI-H1792
Summary of the method: as §1

NCI-H1915 = test system: NCI-H1915
Summary of the method: as §1

NCI-H1975 = test system: NCI-H1975
Summary of the method: as §1

NCI-H2126 = test system: NCI-H2126
Summary of the method: as §1

NCI-H2228 = test system: NCI-H2228
Summary of the method: as §1

NCI-H2342 = test system: NCI-H2342
Summary of the method: as §1

NCI-H2347 = test system: NCI-H2347
Summary of the method: as §1

NCI-H358 = test system: NCI-H358
Summary of the method: as §1

NCI-H522 = test system: NCI-H522
Summary of the method: as §1

NCI-H647 = test system: NCI-H647
Summary of the method: as §1

PC-3 [JPC-3] = test system: PC-3 [JPC-3]
Summary of the method: as §1

RERF-LC-KJ = test system: RERF-LC-KJ
Summary of the method: as §1

SK-LU-1 = test system: SK-LU-1
Summary of the method: as §1

SW 1573 = test system: SW 1573
Summary of the method: as §1

`COc1cc2nccc(Oc3ccc(NC(=O)Nc4cc(C)on4)c(Cl)c3)c2cc1OC` [Tivozanib] + CC(=O)Nc1cccc(-n2c(=O)n(C3CC3)c(=O)c3c(Nc4ccc(I)cc4F)n(C)c(=O)c(C)c32)c1 [Trametinib] (partner 0.02 µM) was tested, and the relative viability (A-427; first compound 0.005 µM) was 0.696, the relative viability (A-427; first compound 0.01581 µM) was 0.718 and the relative viability (A-427; first compound 0.05 µM) was 0.758. The relative viability (A-427; first compound 0.1581 µM) was 0.67, the relative viability (A-427; first compound 0.5 µM) was 0.686 and the relative viability (HCC-15; first compound 0.005 µM) was 0.391. The relative viability (HCC-15; first compound 0.01581 µM) was 0.365, the relative viability (HCC-15; first compound 0.05 µM) was 0.364 and the relative viability (HCC-15; first compound 0.1581 µM) was 0.422. The relative viability (HCC-15; first compound 0.5 µM) was 0.395, the relative viability (HCC-78; first compound 0.005 µM) was 0.788 and the relative viability (HCC-78; first compound 0.01581 µM) was 0.828. For the same molecule, the relative viability (HCC-78; first compound 0.05 µM) was 0.711, the relative viability (HCC-78; first compound 0.1581 µM) was 0.859 and the relative viability (HCC-78; first compound 0.5 µM) was 0.537. It also gave a relative viability (HOP-62; first compound 0.005 µM) of 0.343, a relative viability (HOP-62; first compound 0.01581 µM) of 0.398 and a relative viability (HOP-62; first compound 0.05 µM) of 0.439. It also gave a relative viability (HOP-62; first compound 0.1581 µM) of 0.377, a relative viability (HOP-62; first compound 0.5 µM) of 0.502 and a relative viability (LC-2-ad; first compound 0.005 µM) of 0.91. For the same molecule, the relative viability (LC-2-ad; first compound 0.01581 µM) was 0.849, the relative viability (LC-2-ad; first compound 0.05 µM) was 0.888 and the relative viability (LC-2-ad; first compound 0.1581 µM) was 0.601. The relative viability (LC-2-ad; first compound 0.5 µM) was 0.497, the relative viability (LXF-289; first compound 0.005 µM) was 0.698 and the relative viability (LXF-289; first compound 0.01581 µM) was 0.674. For the same molecule, the relative viability (LXF-289; first compound 0.05 µM) was 0.629, the relative viability (LXF-289; first compound 0.1581 µM) was 0.646 and the relative viability (LXF-289; first compound 0.5 µM) was 0.668. For the same molecule, the relative viability (NCI-H1734; first compound 0.005 µM) was 0.645, the relative viability (NCI-H1734; first compound 0.01581 µM) was 0.642 and the relative viability (NCI-H1734; first compound 0.05 µM) was 0.666. It also gave a relative viability (NCI-H1734; first compound 0.1581 µM) of 0.479, a relative viability (NCI-H1734; first compound 0.5 µM) of 0.638 and a relative viability (NCI-H1755; first compound 0.005 µM) of 0.664. For the same molecule, the relative viability (NCI-H1755; first compound 0.01581 µM) was 0.75, the relative viability (NCI-H1755; first compound 0.05 µM) was 0.804 and the relative viability (NCI-H1755; first compound 0.1581 µM) was 0.739. It also gave a relative viability (NCI-H1755; first compound 0.5 µM) of 0.77, a relative viability (NCI-H1792; first compound 0.005 µM) of 0.401 and a relative viability (NCI-H1792; first compound 0.01581 µM) of 0.397. For the same molecule, the relative viability (NCI-H1792; first compound 0.05 µM) was 0.438, the relative viability (NCI-H1792; first compound 0.5 µM) was 0.632 and the relative viability (NCI-H1915; first compound 0.005 µM) was 0.318. For the same molecule, the relative viability (NCI-H1915; first compound 0.01581 µM) was 0.305, the relative viability (NCI-H1915; first compound 0.05 µM) was 0.3 and the relative viability (NCI-H1915; first compound 0.1581 µM) was 0.273. For the same molecule, the relative viability (NCI-H1915; first compound 0.5 µM) was 0.304, the relative viability (NCI-H1975; first compound 0.005 µM) was 0.296 and the relative viability (NCI-H1975; first compound 0.01581 µM) was 0.39. For the same molecule, the relative viability (NCI-H1975; first compound 0.05 µM) was 0.442, the relative viability (NCI-H1975; first compound 0.1581 µM) was 0.256 and the relative viability (NCI-H1975; first compound 0.5 µM) was 0.312. It also gave a relative viability (NCI-H2126; first compound 0.005 µM) of 0.595, a relative viability (NCI-H2126; first compound 0.01581 µM) of 0.556 and a relative viability (NCI-H2126; first compound 0.05 µM) of 0.567. It also gave a relative viability (NCI-H2126; first compound 0.1581 µM) of 0.444, a relative viability (NCI-H2126; first compound 0.5 µM) of 0.555 and a relative viability (NCI-H2228; first compound 0.005 µM) of 0.55. The relative viability (NCI-H2228; first compound 0.01581 µM) was 0.595, the relative viability (NCI-H2228; first compound 0.05 µM) was 0.514 and the relative viability (NCI-H2228; first compound 0.1581 µM) was 0.249. It also gave a relative viability (NCI-H2228; first compound 0.5 µM) of 0.539, a relative viability (NCI-H2342; first compound 0.005 µM) of 0.823 and a relative viability (NCI-H2342; first compound 0.01581 µM) of 0.834. The relative viability (NCI-H2342; first compound 0.05 µM) was 1.92, the relative viability (NCI-H2342; first compound 0.5 µM) was 0.733 and the relative viability (NCI-H2347; first compound 0.005 µM) was 0.311. It also gave a relative viability (NCI-H2347; first compound 0.01581 µM) of 0.27, a relative viability (NCI-H2347; first compound 0.05 µM) of 0.294 and a relative viability (NCI-H2347; first compound 0.1581 µM) of 0.317. For the same molecule, the relative viability (NCI-H2347; first compound 0.5 µM) was 0.284, the relative viability (NCI-H358; first compound 0.005 µM) was 0.124 and the relative viability (NCI-H358; first compound 0.01581 µM) was 0.153. For the same molecule, the relative viability (NCI-H358; first compound 0.05 µM) was 0.161, the relative viability (NCI-H358; first compound 0.1581 µM) was 0.108 and the relative viability (NCI-H358; first compound 0.5 µM) was 0.144. For the same molecule, the relative viability (NCI-H522; first compound 0.005 µM) was 0.877, the relative viability (NCI-H522; first compound 0.01581 µM) was 0.732 and the relative viability (NCI-H522; first compound 0.05 µM) was 0.705. The relative viability (NCI-H522; first compound 0.1581 µM) was 0.684, the relative viability (NCI-H522; first compound 0.5 µM) was 0.804 and the relative viability (NCI-H647; first compound 0.005 µM) was 0.521. For the same molecule, the relative viability (NCI-H647; first compound 0.01581 µM) was 0.461, the relative viability (NCI-H647; first compound 0.05 µM) was 0.483 and the relative viability (NCI-H647; first compound 0.1581 µM) was 0.408. The relative viability (NCI-H647; first compound 0.5 µM) was 0.49, the relative viability (PC-3 [JPC-3]; first compound 0.01581 µM) was 0.686 and the relative viability (PC-3 [JPC-3]; first compound 0.05 µM) was 0.807. For the same molecule, the relative viability (PC-3 [JPC-3]; first compound 0.1581 µM) was 0.674, the relative viability (PC-3 [JPC-3]; first compound 0.5 µM) was 0.811 and the relative viability (RERF-LC-KJ; first compound 0.005 µM) was 0.758. The relative viability (RERF-LC-KJ; first compound 0.01581 µM) was 0.989, the relative viability (RERF-LC-KJ; first compound 0.05 µM) was 0.805 and the relative viability (RERF-LC-KJ; first compound 0.1581 µM) was 0.859. The relative viability (RERF-LC-KJ; first compound 0.5 µM) was 0.805, the relative viability (SK-LU-1; first compound 0.005 µM) was 0.508 and the relative viability (SK-LU-1; first compound 0.01581 µM) was 0.498. For the same molecule, the relative viability (SK-LU-1; first compound 0.05 µM) was 0.594, the relative viability (SK-LU-1; first compound 0.1581 µM) was 0.3 and the relative viability (SK-LU-1; first compound 0.5 µM) was 0.503. For the same molecule, the relative viability (SW 1573; first compound 0.005 µM) was 0.541, the relative viability (SW 1573; first compound 0.01581 µM) was 0.644 and the relative viability (SW 1573; first compound 0.05 µM) was 0.464. The relative viability (SW 1573; first compound 0.1581 µM) was 0.457 and the relative viability (SW 1573; first compound 0.5 µM) was 0.416.
